Results from US20190216889A1, “METHODS AND COMPOSITIONS FOR TREATMENT OF FIBROSIS” (Children's Hospital Medical Center, priority 2018, published 2019).
Entries after “also recorded” stand apart in the source; their conditions may differ. Where no end group is shown, it is not given here.

Columns and labels:
[1] = tested on: murine model of unilateral renal ischemia/reperfusion (UIR); test: Unilateral renal ischemia/reperfusion (UIR) with daily i.p. peptide from day 7, tissues collected day 14; assay type: in vivo, C57BL6/J mice
Procedure: Starting seven days after surgery, pUR4 (25 mg/kg/d), III-11C (control; 25 mg/kg/d) or PBS were administered daily by intraperitoneal injection. Mice were sacrificed and tissues collected 14 days after surgery.
All procedures were approved by and performed according to the Department of Laboratory Animal Medicine and the Institutional Animal Care and Use Committee at the Cincinnati Children's Hospital Medical Center. Wild type C57BL6/J 9-10-week-old male mice (Jackson Laboratories) were used for these experiments.
Mice were allowed 1-2 weeks of acclimation upon arrival to the animal facility, after which they underwent unilateral ischemia/reperfusion (UIR) according to Le Clef et al., 2016.17 Briefly, mice were anesthetized with 3% isoflurane for surgical prep (abdominal hair removal, animal identification, etc.), and maintained at 1.5% isoflurane on a 37° C. heating pad throughout the procedure. Following surgical exposure of the ventral abdomen, an atraumatic clamp was placed on the left renal artery and vein for 30 minutes; verification of color change following reperfusion was performed by the surgeon before mice were sutured and glued (outer suture reinforcement), given buprenorphine and subcutaneous saline and returned to their cages. For each animal, the contralateral (right) kidney and renal blood vessels were visualized, but remained untouched. Sham animals underwent an identical surgical procedure, except that the left and right renal arteries and veins were exposed, but were not clamped. Seven (7) days after surgery, mice were weighed and randomly assigned to daily intraperitoneal (i.p.) injections of PBS, III-11C (control peptide; 25 mg/kg), or pUR4 (25 mg/kg).
14 days after UIR (7 days after the onset of daily peptide injections), mice were given 100U heparin and anesthetized with isoflurane; blood was collected and animals were perfused with cold PBS through the aortic arch. Kidneys were excised (and the capsule membrane carefully removed), weighed, and then bisected lengthwise; one half was placed in cold 4% paraformaledhyde overnight followed by paraffin embedding, the other half cut into ˜1 mm3 pieces and flash-frozen for RNA and protein isolation.
Fixed kidneys were paraffin embedded, sectioned at 8 μm and mounted onto glass slides. Prior to staining, the sections were deparaffinized in xylene and rehydrated to water through increasing dilutions of ethanol (100%, 95%, 70%, and then 50%). For picrosirius red staining, slides were incubated for 1 hour in 0.1% Sirius Red (in 1.3% aqueous picric acid), washed twice in acidified water (0.5% acetic acid), […] and mounted with Permount. Images were taken at 10× and 40× (Olympus BX-51 with a DS-Ril camera), and the percentage of red staining was quantified using Image J software (NIH) by two observers blinded to experimental conditions.
For immunofluorescent staining, deparaffinized and rehydrated sections were microwaved for 20 minutes in a sodium citrate antigen retrieval solution (Vector H-3300), and then permeabilized in 0.06% triton-X in TBS. Sections were blocked in 10% goat or donkey serum (depending on the secondary antibody) in TBS for 2 hours at room temperature, and then incubated with primary antibody in 1% serum/TBS overnight at 4° C. Antibodies used were as follows: lipocalin-2/NGAL (1:100; JM-3819, MBL Intl Corp), Tim1/Kim1 (1:100; AF1817, R&D Systems), CD45 (1:100; AF114, R&D Systems), fibronectin (1:100; ab2413, Abcam), collagen I (1:100; ab21286, Abcam), vimentin (1:100; ab45939, Abcam), alpha-smooth muscle actin (1:500; A5228, Sigma). Slides were then washed three times in TBST for 5 min each, and incubated with secondary antibodies for 45 minutes at room temperature. In these experiments the following secondary antibodies were used, all from Jackson ImmunoResearch: donkey anti-rabbit 488 (711-545-152), donkey anti-goat 488 (705-545-147), donkey anti-mouse 647 (715-605-150) and donkey anti-rabbit 647 (711-605-152). […]

[2] = molecular target: fibronectin polymerization (Homo sapiens, UniProt P02751); details: in vitro; cited from earlier work
vascular remodeling = details: localized pUR4 treatment; cited from earlier work
liver fibrosis = details: localized pUR4 treatment; cited from earlier work
[3] = tested on: myocardial ischemia/reperfusion (I/R) injury; details: cited from earlier work
[4] = tested on: unilateral ureteral obstruction (UUO); details: obstructive model of kidney injury; cited from earlier work
[5] = 2 weeks after UIR, 25 mg/kg/d, 25 mg/kg/day
[6] = 14 days after UIR, 25 mg/kg/d, 25 mg/kg/day
[7] = injured kidney, 2 weeks after UIR, 25 mg/kg/d, 25 mg/kg/day
[8] = injured vs contralateral kidney, 14 days after UIR, 25 mg/kg i.p. daily from day 7, 25 mg/kg
[9] = kidney, 2 weeks after UIR, 25 mg/kg/d
[10] = one week systemic daily administration, up to four weeks after I/R

Sequence of fibronectin polymerization (P02751 32-2477): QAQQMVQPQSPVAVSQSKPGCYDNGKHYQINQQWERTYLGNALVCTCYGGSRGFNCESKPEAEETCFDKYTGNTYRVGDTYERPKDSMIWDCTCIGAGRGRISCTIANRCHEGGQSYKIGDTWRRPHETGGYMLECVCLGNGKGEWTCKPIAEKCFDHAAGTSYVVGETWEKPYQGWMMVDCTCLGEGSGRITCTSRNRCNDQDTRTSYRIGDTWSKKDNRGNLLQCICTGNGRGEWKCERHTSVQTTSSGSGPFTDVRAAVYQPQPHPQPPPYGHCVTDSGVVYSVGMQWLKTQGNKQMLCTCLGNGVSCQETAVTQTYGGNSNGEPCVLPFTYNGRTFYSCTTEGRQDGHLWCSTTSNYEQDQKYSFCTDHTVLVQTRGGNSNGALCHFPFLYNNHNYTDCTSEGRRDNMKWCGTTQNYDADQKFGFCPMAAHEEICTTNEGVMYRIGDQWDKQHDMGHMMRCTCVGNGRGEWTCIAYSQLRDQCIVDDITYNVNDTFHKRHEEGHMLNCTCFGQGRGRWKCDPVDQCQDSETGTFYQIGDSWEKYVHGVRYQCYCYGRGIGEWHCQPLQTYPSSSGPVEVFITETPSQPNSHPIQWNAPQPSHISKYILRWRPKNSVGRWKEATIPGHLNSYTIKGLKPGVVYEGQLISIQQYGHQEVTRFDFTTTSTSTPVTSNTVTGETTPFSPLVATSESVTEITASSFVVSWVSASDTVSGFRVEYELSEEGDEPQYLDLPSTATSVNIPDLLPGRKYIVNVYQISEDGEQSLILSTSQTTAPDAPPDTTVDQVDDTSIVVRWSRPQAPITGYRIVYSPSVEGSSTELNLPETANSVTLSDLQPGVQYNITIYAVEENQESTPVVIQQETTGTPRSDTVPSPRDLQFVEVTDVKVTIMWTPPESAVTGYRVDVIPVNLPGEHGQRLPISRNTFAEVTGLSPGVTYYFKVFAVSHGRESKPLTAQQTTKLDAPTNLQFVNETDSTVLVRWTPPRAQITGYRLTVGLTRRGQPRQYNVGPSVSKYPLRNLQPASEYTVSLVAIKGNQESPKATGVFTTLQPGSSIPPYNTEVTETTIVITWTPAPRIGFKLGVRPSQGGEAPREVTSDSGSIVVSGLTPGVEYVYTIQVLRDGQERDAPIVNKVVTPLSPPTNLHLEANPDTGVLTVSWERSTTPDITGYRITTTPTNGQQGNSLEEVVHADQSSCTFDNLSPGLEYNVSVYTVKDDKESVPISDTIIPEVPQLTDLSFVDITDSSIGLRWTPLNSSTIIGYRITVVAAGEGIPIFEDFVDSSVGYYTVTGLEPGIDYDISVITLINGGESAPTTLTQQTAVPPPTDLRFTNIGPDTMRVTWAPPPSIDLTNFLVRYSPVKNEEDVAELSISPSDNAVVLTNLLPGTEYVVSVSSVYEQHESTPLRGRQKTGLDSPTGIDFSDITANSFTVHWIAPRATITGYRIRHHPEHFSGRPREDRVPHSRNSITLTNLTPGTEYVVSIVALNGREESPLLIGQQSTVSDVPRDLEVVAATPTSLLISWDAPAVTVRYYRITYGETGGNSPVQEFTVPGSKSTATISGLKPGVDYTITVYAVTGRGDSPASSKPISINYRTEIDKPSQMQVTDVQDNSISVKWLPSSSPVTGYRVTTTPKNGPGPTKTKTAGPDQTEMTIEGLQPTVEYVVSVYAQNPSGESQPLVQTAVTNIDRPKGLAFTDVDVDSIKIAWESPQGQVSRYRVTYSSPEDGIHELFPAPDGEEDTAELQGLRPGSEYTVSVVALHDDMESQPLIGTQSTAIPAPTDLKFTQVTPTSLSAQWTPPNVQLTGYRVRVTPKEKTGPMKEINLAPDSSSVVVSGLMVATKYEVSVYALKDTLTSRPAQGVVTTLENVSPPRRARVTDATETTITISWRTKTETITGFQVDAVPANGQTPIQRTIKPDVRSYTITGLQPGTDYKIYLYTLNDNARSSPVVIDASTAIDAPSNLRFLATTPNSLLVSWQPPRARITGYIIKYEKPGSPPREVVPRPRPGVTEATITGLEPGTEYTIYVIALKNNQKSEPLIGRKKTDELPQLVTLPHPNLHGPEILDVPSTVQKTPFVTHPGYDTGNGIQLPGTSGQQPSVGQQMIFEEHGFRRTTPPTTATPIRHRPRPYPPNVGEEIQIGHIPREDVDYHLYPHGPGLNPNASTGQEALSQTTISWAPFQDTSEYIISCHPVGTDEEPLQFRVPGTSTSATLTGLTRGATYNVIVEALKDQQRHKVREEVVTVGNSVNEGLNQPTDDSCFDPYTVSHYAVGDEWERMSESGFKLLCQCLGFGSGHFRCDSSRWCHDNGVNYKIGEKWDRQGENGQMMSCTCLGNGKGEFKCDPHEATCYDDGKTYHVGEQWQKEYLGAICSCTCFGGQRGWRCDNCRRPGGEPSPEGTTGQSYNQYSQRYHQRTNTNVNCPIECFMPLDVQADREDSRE

Q: What does the source list for “CKDQSPLAGESGETEYITEVYGNQQNPVDIDKKLPNETGFSGNMVETEDT (also: His tag) [pUR4]”?
A: kidney weight / kidney weight-to-body weight ratio [1, 5]: partially restored; also recorded: significantly recovered; mature fibrillar collagen, second harmonic generation (SHG) [1, 5]: alleviation of fibrotic collagen deposition; also recorded: decreased kidney fibrosis; collagen deposition and maturation, picrosirius red staining (brightfield and polarized light) ([1]; 2 weeks after UIR, pUR4 vs III-11C, 25 mg/kg/d): decreased; also recorded: attenuated; periglomerular fibrosis (fibronectin, α-SMA and vimentin surrounding glomeruli) ([1]; 14 days after UIR, 25 mg/kg/d): reduced periglomerular fibrosis; alpha-smooth muscle actin (α-SMA) expression / positive cells, immunostaining [1, 6]: abrogated; also recorded: diminished; collagen I deposition, immunofluorescence [1, 6]: reduces this expansion; also recorded: concomitant decrease; fibronectin deposition in kidney interstitium, immunofluorescence [1, 6]: reduces this expansion; also recorded: decreased the amount of fibronectin; vimentin expression / expansion of vimentin-positive cells outside the glomerulus, immunostaining [1, 6]: abrogated; also recorded: diminished; CD45+ immune cell accumulation, immunostaining [1, 7]: abrogated; tubule damage and cellular infiltration, H&E staining [1, 7]: abrogates; also recorded: decrease in cellular infiltrate and reduced tubule damage; Havcr1 transcript expression, qPCR of kidney lysates [1, 8]: nearly abolished; also recorded: significantly reduced; lipocalin-2 (Lcn-2) transcript expression, qPCR of kidney lysates [1, 8]: nearly abolished; also recorded: significantly reduced; NGAL (lipocalin-2) protein expression, immunofluorescent staining [1, 9]: decreased; Tim-1/Kim-1 (Havcr1) protein expression, immunofluorescent staining [1, 9]: decreased; effect of injection in animals that underwent sham surgery ([1]; sham surgery, PBS vs III-11C vs pUR4): no differences were observed; fibronectin polymerization [2]: inhibit; fibronectin production or secretion [2]: not its production or secretion; excess ECM deposition (vascular remodeling): attenuates; excess ECM deposition (liver fibrosis): attenuates; deposition of ECM proteins ([3]; after myocardial I/R): attenuated; neutrophil infiltration ([3]; after myocardial I/R): reduced; proliferation of activated cardiac myofibroblasts ([3]; after myocardial I/R): reduced; cardiac function [3, 10]: improves; pathologic fibrosis and cardiac remodeling [3, 10]: decreases; fibrosis [4]: attenuate fibrosis
